Assays:
[1] = Organ distribution of 99mTc-labeled substances in rats 30 minutes after injection as a function of the amount of substance administered; type: in vivo; details: for Blood/ml / Kidneys / Liver / Lung / Remainder of body / Spleen / Thyroid / tissue uptake at 0.5 h: 30 min after injection, n = 3; for tissue uptake at 0.5 h: rat, in vivo, iv, 0.05 mg, read-out: Femur/g
Protocol: Assuming that 2-20 mg of TPB, ETP, PTP or phytate are administered to humans, and assuming that the weight of human is 80 kg, this corresponds to an amount administered of 25-250 μg/kg of body weight. Calculating on the basis of the body weight of rats weighing 200 g, then administration of 5-50 μg of TPB, ETP, PTP or phytate per rat exactly reflects the relationships.
Organ distribution of ^99m Tc TPB, ^99m TC ETP and ^99m Tc
phytate in rats (n = 3) 30
minutes after injection as a function of the amount of substance
(all data as a percentage of the amount of activity administered)

[2] = Example 2: organ distribution in rats, frozen solution labeled with 99mTc; type: in vivo, Sprague-Dawley rats; details: femoral vein
Protocol: 400 mg of 2,4,4-triphosphonobutyric acid are dissolved in about 30 ml of double-distilled water. The pH of the solution, which is about 1.7 after this, is then adjusted to pH 6 using 1N NaOH. 8 mg of SnCl2.2H2 O in 1 ml of 0.1N HCl are added to this solution, and the pH is again adjusted to 6 using 0.1N NaOH, and then the solution is made up to 40 ml. All the operations are carried out under a protective atmosphere of nitrogen gas. The solution thus obtained is frozen in individual 1 ml portions.
After 3 days, the solution is thawed and reacted with 1 ml of a ^99m Tc-pertechnetate solution which contains 4.44 MBq (120 μCi) of ^99m Tc. After 30 minutes, Sprague-Dawley rats weighing 200 g each receive 0.5 ml of this solution injected into the femoral vein. 3 animals are sacrificed with ether at 30 minutes and at 2 hours after the injection, and the organ distribution is determined.

[3] = Comparison of 99mTc TPB, 99mTc PTP and 99mTc phytate after intravenous injection to dogs; type: in vivo
[4] = Lymphatic scintigraphy on dogs; type: in vivo, beagle dogs
Protocol: In order to check the utilizability of the new diagnostic agent for lymphatic scintigraphy, lymphatic scintigraphy using ^99m Tc TPB was carried out on dogs.
A TPB labeling unit which contained CaCl2 as described in Example 4 was prepared with 5 ml of ^99m Tc-pertechnetate solution which contained 5 mCi of ^99m Tc per ml. Adult beagle dogs each received 0.3-0.4 ml of this solution injected subcutaneously into the hind paw. The change in the distribution of radioactivity with time over the hind legs was then followed using a gamma camera for 4 hours. The site of injection was shielded with lead in each case.

[5] = Accumulation of phosphoric acid derivatives investigated as technetium-99m diagnostic agents (bone, liver, RES); details: in vivo
Description: It is possible to use phosphoric acid derivatives, particularly organic phosphonic acid derivatives, for bone scintigraphy. Many compounds have been investigated in the search for derivatives suitable as a technetium-99m diagnostic agent for bone.

[6] = in vivo; cited from earlier work
[7] = second amount column (printed 50 μg)
[8] = third amount column (printed 50 μg)
[9] = all amounts of substance investigated

Q: With `O=C(O)C(CC(P(=O)(O)O)P(=O)(O)O)P(=O)(O)O` (stereo not shown) [TPB, 2,4,4-triphosphonobutyric acid] as the molecule, how does the Blood/ml ([1]; (50 μg)) read?
A: Its Blood/ml is 0.05 percentage of the amount of ac.

Q: What about the Kidneys ([1]; (50 μg)) of the same molecule?
A: Its Kidneys is 0.12 percentage of the amount of activity administered.

Q: And the Liver ([1]; (50 μg))?
A: Its Liver is 95.8 percentage of the amount of activity administered.

Q: And the Lung ([1]; (50 μg))?
A: The Lung was 0.19 percentage of the amount of activity administered.

Q: What about the Remainder of body ([1]; (50 μg)) of the same molecule?
A: Its Remainder of body is 5.6 percentage of the amount of activity administered.

Q: What about the Spleen ([1]; (50 μg)) of the same molecule?
A: The Spleen was 1.30 percentage of the amount of activity administered.

Q: And the Thyroid ([1]; (50 μg))?
A: The Thyroid was 0.03 percentage of the amount of activity administered.

Q: What about the Blood/ml [1, 7] of the same molecule?
A: The Blood/ml was 0.16 percentage of the amount of ac.

Q: And the Kidneys [1, 7]?
A: Its Kidneys is 0.37 percentage of the amount of activity administered.

Q: What about the Liver [1, 7] of the same molecule?
A: Its Liver is 92.7 percentage of the amount of activity administered.

Q: What about the Lung [1, 7] of the same molecule?
A: Its Lung is 0.30 percentage of the amount of activity administered.

Q: What about the Remainder of body [1, 7] of the same molecule?
A: The Remainder of body was 11.5 percentage of the amount of activity administered.

Q: What about the Spleen [1, 7] of the same molecule?
A: The Spleen was 0.88 percentage of the amount of activity administered.

Q: And the Thyroid [1, 7]?
A: Its Thyroid is 0.03 percentage of the amount of activity administered.

Q: And the Blood/ml [1, 8]?
A: Its Blood/ml is 0.19 percentage of the amount of ac.

Q: What about the Kidneys [1, 8] of the same molecule?
A: The Kidneys was 0.39 percentage of the amount of activity administered.

Q: And the Liver [1, 8]?
A: Its Liver is 88.7 percentage of the amount of activity administered.

Q: And the Lung [1, 8]?
A: Its Lung is 0.29 percentage of the amount of activity administered.

Q: And the Remainder of body [1, 8]?
A: The Remainder of body was 12.6 percentage of the amount of activity administered.

Q: And the Spleen [1, 8]?
A: Its Spleen is 0.99 percentage of the amount of activity administered.

Q: And the Thyroid [1, 8]?
A: The Thyroid was 0.03 percentage of the amount of activity administered.

Q: And the “accumulation in the liver and spleen compared with phytate” value [1, 9]?
A: The value was “markedly higher than that of phytate”.

Q: And the “accumulation of activity in the kidneys, blood, femur and remainder of the body compared with phytate” value [1, 9]?
A: The value was “clearly lower than with phytate”.

Q: What about the “suitability as diagnostic agent for visualization of RES-containing organs compared with 99mTc phytate” value ([1]; deduction from the animal experiments) of the same molecule?
A: Its value is “unambiguously superior”.

Q: And the tissue uptake at 0.5 h [1, 7]?
A: The tissue uptake at 0.5 h was 0.29 %ID/g.

Q: What about the tissue uptake at 0.5 h [1, 8] of the same molecule?
A: The tissue uptake at 0.5 h was 0.3 %ID/g.

Q: And the Blood/ml ([2]; 30 min p.i.)?
A: Its Blood/ml is 0.03 percentage of the dose adminis.

Q: What about the Kidneys ([2]; 30 min p.i.) of the same molecule?
A: The Kidneys was 1.74 percentage of the dose adminis.

Q: What about the Liver ([2]; 30 min p.i.) of the same molecule?
A: The Liver was 86.5 percentage of the dose adminis.

Q: And the Remainder of body ([2]; 30 min p.i.)?
A: The Remainder of body was 9.08 percentage of the dose adminis.

Q: And the Spleen ([2]; 30 min p.i.)?
A: The Spleen was 2.40 percentage of the dose adminis.

Q: And the Thyroid ([2]; 30 min p.i.)?
A: Its Thyroid is 0.05 percentage of the dose adminis.

Q: And the urine ([2]; 30 min p.i.)?
A: Its urine is 1.75 percentage of the dose adminis.

Q: And the Blood/ml ([2]; 2 hours p.i.)?
A: Its Blood/ml is 0.01 percentage of the dose adminis.

Q: And the Kidneys ([2]; 2 hours p.i.)?
A: The Kidneys was 1.12 percentage of the dose adminis.

Q: And the Liver ([2]; 2 hours p.i.)?
A: The Liver was 88.3 percentage of the dose adminis.

Q: And the Remainder of body ([2]; 2 hours p.i.)?
A: Its Remainder of body is 8.27 percentage of the dose adminis.

Q: And the Spleen ([2]; 2 hours p.i.)?
A: The Spleen was 3.06 percentage of the dose adminis.

Q: And the Thyroid ([2]; 2 hours p.i.)?
A: Its Thyroid is 0.04 percentage of the dose adminis.

Q: And the urine ([2]; 2 hours p.i.)?
A: The urine was 2.02 percentage of the dose adminis.

Q: And the tissue uptake at 0.5 h ([2]; rat, bone, iv, 30 min p.i.)?
A: The tissue uptake at 0.5 h was 0.17 %ID/g.

Q: And the tissue uptake at 2 h ([2]; rat, bone, iv, 2 hours p.i.)?
A: Its tissue uptake at 2 h is 0.22 %ID/g.

Q: What about the “excretion of activity with the urine” value ([3]; 30 min after injection, intravenous, dogs) of the same molecule?
A: The value was 0.6 % of the test dose.

Q: And the “excretion of activity with the urine, compared with phytate” value ([3]; intravenous, dogs)?
A: Its value is “markedly less”.

Q: What about the “decrease in activity via the liver after accumulation in the liver is complete” value ([3]; intravenous, dogs, compared with phytate) of the same molecule?
A: The value was “slower”.

Q: What about the “suitability for lymphatic scintigraphy” value [4] of the same molecule?
A: The value was “also suitable for lymphatic scintigraphy”.

Q: And the accumulation in bone [5]?
A: Its accumulation in bone is “virtually not at all”.

Q: And the “accumulation in the liver” value [5]?
A: The value was “very preferentially accumulated in the liver”.

Q: With phytate [reference compound] as the molecule, how does the “excretion of activity with the urine” value ([3]; dog, in vivo, iv, 0.5 h) read?
A: The value was 6.6 % of the test dose.

Q: And the accumulation in bone [5]?
A: The accumulation in bone was “higher”.

Q: What about the “accumulation in the RES” value [5] of the same molecule?
A: Its value is “lower”.

Q: What about the “accumulation of activity in the RES” value [6] of the same molecule?
A: Its value is “low compared with the products mentioned above”.

Reference: patent publication US4693884A, “Technetium-99m triphosphonates and tetraphosphonates for the scintigraphic visualization of res-containing organs and lymph vessels, and a process for their preparation” (Hoechst Aktiengesellschaft, priority 1982, dated 1987)
